Results reported in patent publication US12599136B2, “Substituted isophthalic acid diamides and their use as herbicides” (Bayer Aktiengesellschaft, priority 2020, dated 2026).

Tests used:
Type in all cases: in vivo
Pharbitis purpurea = assay: Post-emergence herbicidal action against PHBPU; settings: visual assessment about 3 weeks after treatment
Method: (§1) Seeds of monocotyledonous and dicotyledonous weed and crop plants are laid out in sandy loam soil in wood-fiber pots, covered with soil and cultivated in a greenhouse under good growth conditions. 2 to 3 weeks after sowing, the test plants are treated at the one-leaf stage. The compounds of the invention, formulated in the form of wettable powders (WP) or as emulsion concentrates (EC), are then sprayed onto the green parts of the plants in the form of an aqueous suspension or emulsion at a water application rate equivalent to 600 to 800 l/ha, with addition of 0.2% wetting agent. After the test plants have been left to stand in the greenhouse under optimal growth conditions for about 3 weeks, the action of the preparations is assessed visually in comparison to untreated controls (herbicidal action in percent (%): 100% activity=the plants have died, 0% activity=like control plants). […] The tables below illustrate, in an illustrative manner, the post-emergence herbicidal action of the compounds of the invention, the herbicidal activity being stated in percent.

Abutilon theophrasti [1] = assay: Pre-emergence herbicidal action against ABUTH; settings: visual score after 3 weeks vs untreated controls
From the text: (§2) Seeds of monocotyledonous and dicotyledonous weed plants and crop plants are laid out in sandy loam soil in wood-fiber pots and covered with soil. The compounds of the invention, formulated in the form of wettable powders (WP) or as emulsion concentrates (EC), are then applied to the surface of the covering soil in the form of an aqueous suspension or emulsion at a water application rate equivalent to 600 to 800 l/ha, with addition of 0.2% wetting agent. After the treatment, the pots are placed in a greenhouse and kept under good growth conditions for the trial plants. The damage to the test plants is scored visually after a test period of 3 weeks by comparison with untreated controls (herbicidal activity in percent (%): 100% activity=the plants have died, 0% activity=like control plants). […] The tables below illustrate, in an illustrative manner, the post-emergence herbicidal action of the compounds of the invention, the herbicidal activity being stated in percent.

Amaranthus retroflexus [2] = assay: Pre-emergence herbicidal action against AMARE; settings: visual score after 3 weeks vs untreated controls
From the text: as §2

Alopecurus myosuroides [3] = assay: Post-emergence herbicidal action against ALOMY
Method: as §1

Viola tricolor [4] = assay: Post-emergence herbicidal action against VIOTR
Method: as §1

Alopecurus myosuroides [5] = assay: Pre-emergence herbicidal action against ALOMY; settings: visual score after 3 weeks vs untreated controls
From the text: as §2

Veronica persica [6] = assay: Pre-emergence herbicidal action against VERPE; settings: 80 g/ha
From the text: as §2

Echinochloa crus-galli [7] = assay: Pre-emergence herbicidal action against ECHCG; settings: 80 g/ha; visual score after 3 weeks vs untreated controls
From the text: as §2

Setaria viridis [8] = assay: Post-emergence herbicidal action against SETVI; settings: visual assessment about 3 weeks after treatment
Method: as §1

Viola tricolor [9] = assay: Pre-emergence herbicidal action against VIOTR
From the text: as §2

Veronica persica [10] = assay: Post-emergence herbicidal action against VERPE; settings: visual assessment about 3 weeks after treatment
Method: as §1

Amaranthus retroflexus [11] = assay: Post-emergence herbicidal action against AMARE; settings: visual assessment about 3 weeks after treatment
Method: as §1

Abutilon theophrasti [12] = assay: Post-emergence herbicidal action against ABUTH
Method: as §1

Matricaria inodora [13] = assay: Pre-emergence herbicidal action against MATIN; settings: visual score after 3 weeks vs untreated controls
From the text: as §2

Setaria viridis [14] = assay: Pre-emergence herbicidal action against SETVI
From the text: as §2

Matricaria inodora [15] = assay: Post-emergence herbicidal action against MATIN; settings: visual assessment about 3 weeks after treatment
Method: as §1

Digitaria sanguinalis = assay: Pre-emergence herbicidal action against DIGSA
From the text: as §2

Polygonum convolvulus = assay: Pre-emergence herbicidal action against POLCO
From the text: as §2

Avena fatua [16] = assay: Pre-emergence herbicidal action against AVEFA; settings: 80 g/ha; visual score after 3 weeks vs untreated controls
From the text: as §2

Echinochloa crus-galli [17] = assay: Post-emergence herbicidal action against ECHCG; settings: visual assessment about 3 weeks after treatment
Method: as §1

Avena fatua [18] = assay: Post-emergence herbicidal action against AVEFA; settings: 20 g/ha, visual assessment about 3 weeks after treatment
Method: as §1

Lolium rigidum = assay: Pre-emergence herbicidal action against LOLRI; settings: 80 g/ha
From the text: as §2

Row | SMILES | Pre-emergence action against ABUTH (Abutilon theophrasti [1]; 20 g/ha) | Pre-emergence action against ABUTH (Abutilon theophrasti [1]; 80 g/ha) | Pre-emergence action against AMARE (Amaranthus retroflexus [2]; 20 g/ha) | Pre-emergence action against AMARE (Amaranthus retroflexus [2]; 80 g/ha) | Post-emergence action against ALOMY (Alopecurus myosuroides [3]; 20 g/ha) | Post-emergence action against VIOTR in % (Viola tricolor [4]; 20 g/ha) | Pre-emergence action against ALOMY (Alopecurus myosuroides [5]; 80 g/ha) | Pre-emergence action against ECHCG (Echinochloa crus-galli [7]) | Post-emergence action against SETVI in % (Setaria viridis [8]; 20 g/ha) | Pre-emergence action against VIOTR (Viola tricolor [9]; 80 g/ha) | Post-emergence action against AMARE in % (Amaranthus retroflexus [11]; 5 g/ha) | Post-emergence action against AMARE in % (Amaranthus retroflexus [11]; 20 g/ha) | Post-emergence action against ABUTH (Abutilon theophrasti [12]; 5 g/ha) | Post-emergence action against ABUTH (Abutilon theophrasti [12]; 20 g/ha) | Pre-emergence action against MATIN (Matricaria inodora [13]; 20 g/ha) | Pre-emergence action against MATIN (Matricaria inodora [13]; 80 g/ha) | Pre-emergence action against SETVI (Setaria viridis [14]; 80 g/ha) | Post-emergence action against ALOMY (Alopecurus myosuroides [3]; 5 g/ha) | Pre-emergence action against AVEFA (Avena fatua [16]) | Post-emergence action against ECHCG in % (Echinochloa crus-galli [17]; 20 g/ha) | other results
1 | CN(CC(F)F)C(=O)c1c(C(F)(F)F)ccc(C(=O)Nc2nnnn2C)c1Cl [Example 1-128] | 100% | 100% | 100% | 100% | 80% | 100% | 100% | 100% | 90% | 100% | 100% | 100% | 80% | 90% | 80% | 90% | 100% |  |  |  | Post-emergence action against PHBPU in % (Pharbitis purpurea; 20 g/ha): 90%; Post-emergence action against VIOTR in % (Viola tricolor [4]; 5 g/ha): 90%; Pre-emergence action against VERPE (Veronica persica [6]): 100%; Pre-emergence action against VIOTR (Viola tricolor [9]; 20 g/ha): 100%; Post-emergence action against VERPE in % (Veronica persica [10]; 20 g/ha): 90%; Pre-emergence action against SETVI (Setaria viridis [14]; 20 g/ha): 90%; Post-emergence action against MATIN in % (Matricaria inodora [15]; 20 g/ha): 80%; Pre-emergence action against DIGSA (Digitaria sanguinalis; 20 g/ha): 100%; Pre-emergence action against DIGSA (Digitaria sanguinalis; 80 g/ha): 100%; Pre-emergence action against POLCO (Polygonum convolvulus; 20 g/ha): 80%; Pre-emergence action against POLCO (Polygonum convolvulus; 80 g/ha): 80%
2 | CN(C(=O)c1c(C(F)F)ccc(C(=O)Nc2nnnn2C)c1Cl)C1CC1 [Example 1-156] | 100% | 100% | 100% | 100% | 90% | 90% | 100% | 90% | 90% | 100% | 100% | 100% | 90% | 90% | 90% | 100% | 100% | 80% | 80% | 90% | Post-emergence action against PHBPU in % (Pharbitis purpurea; 5 g/ha): 80%; Post-emergence action against PHBPU in % (Pharbitis purpurea; 20 g/ha): 90%; Post-emergence action against VIOTR in % (Viola tricolor [4]; 5 g/ha): 90%; Pre-emergence action against VERPE (Veronica persica [6]): 90%; Post-emergence action against SETVI in % (Setaria viridis [8]; 5 g/ha): 90%; Post-emergence action against VERPE in % (Veronica persica [10]; 5 g/ha): 80%; Post-emergence action against VERPE in % (Veronica persica [10]; 20 g/ha): 80%; Post-emergence action against ECHCG in % (Echinochloa crus-galli [17]; 5 g/ha): 90%; Post-emergence action against MATIN in % (Matricaria inodora [15]; 5 g/ha): 80%; Post-emergence action against MATIN in % (Matricaria inodora [15]; 20 g/ha): 90%; Pre-emergence action against POLCO (Polygonum convolvulus; 80 g/ha): 80%
3 | CN(C)C(=O)c1c(Br)ccc(C(=O)Nc2nnnn2C)c1Cl [Example 1-191] | 100% | 100% |  | 100% | 100% |  | 100% | 90% | 100% | 100% | 100% | 100% | 80% | 90% | 80% | 100% | 100% | 80% | 90% | 100% | Post-emergence action against AVEFA in % (Avena fatua [18]): 90%; Pre-emergence action against ALOMY (Alopecurus myosuroides [5]; 20 g/ha): 90%; Pre-emergence action against VERPE (Veronica persica [6]): 90%; Pre-emergence action against LOLRI (Lolium rigidum): 80%
4 | CCN(C)C(=O)c1c(Br)ccc(C(=O)Nc2nnnn2C)c1Cl [Example 1-192] | 80% | 100% | 80% | 100% | 100% | 80% | 100% | 80% | 100% | 100% | 100% | 100% | 90% | 90% |  | 100% | 100% | 90% | 80% | 100% | Post-emergence action against PHBPU in % (Pharbitis purpurea; 20 g/ha): 80%; Post-emergence action against SETVI in % (Setaria viridis [8]; 5 g/ha): 100%; Pre-emergence action against LOLRI (Lolium rigidum): 80%
5 | CCN(C)C(=O)c1c(C(F)F)ccc(C(=O)Nc2nnnn2CC)c1C [Example 2-51] | 100% | 100% | 90% | 90% | 90% | 90% | 100% |  | 90% | 80% | 90% | 100% | 90% | 90% | 90% | 100% |  | 80% | 80% | 90% | Post-emergence action against VIOTR in % (Viola tricolor [4]; 5 g/ha): 90%; Post-emergence action against SETVI in % (Setaria viridis [8]; 5 g/ha): 80%; Post-emergence action against VERPE in % (Veronica persica [10]; 20 g/ha): 90%; Post-emergence action against MATIN in % (Matricaria inodora [15]; 20 g/ha): 80%; Pre-emergence action against POLCO (Polygonum convolvulus; 80 g/ha): 90%
6 | CCN(C)C(=O)c1c(Br)ccc(C(=O)Nc2nnnn2CC)c1Cl [Example 2-192] | 100% | 100% | 100% | 100% | 100% | 100% | 100% | 90% | 100% | 100% | 100% | 100% | 80% | 80% | 100% | 100% | 100% | 80% | 80% | 100% | Post-emergence action against PHBPU in % (Pharbitis purpurea; 20 g/ha): 80%; Post-emergence action against AVEFA in % (Avena fatua [18]): 80%; Pre-emergence action against VERPE (Veronica persica [6]): 80%; Post-emergence action against SETVI in % (Setaria viridis [8]; 5 g/ha): 100%; Pre-emergence action against LOLRI (Lolium rigidum): 80%
